Assay results taken from ChEMBL document CHEMBL1140513, “Heteroatom-linked indanylpyrazines are corticotropin releasing factor type-1 receptor antagonists” (Bioorg Med Chem Lett, 2007).

Molecular target: T1, Corticotropin-releasing factor receptor 1 (Homo sapiens, UniProt P34998)
T1 sequence (P34998 whole entry): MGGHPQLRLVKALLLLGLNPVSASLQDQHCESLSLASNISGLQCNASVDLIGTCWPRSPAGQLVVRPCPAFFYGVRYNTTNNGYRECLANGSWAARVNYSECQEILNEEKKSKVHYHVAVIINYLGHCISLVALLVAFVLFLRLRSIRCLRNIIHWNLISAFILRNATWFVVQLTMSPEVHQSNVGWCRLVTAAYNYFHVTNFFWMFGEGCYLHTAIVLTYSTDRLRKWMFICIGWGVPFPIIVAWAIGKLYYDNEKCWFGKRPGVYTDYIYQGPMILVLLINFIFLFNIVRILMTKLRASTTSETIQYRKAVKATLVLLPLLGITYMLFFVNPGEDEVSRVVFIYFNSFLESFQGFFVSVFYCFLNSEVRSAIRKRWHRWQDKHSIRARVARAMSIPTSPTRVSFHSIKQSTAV
Test: Displacement of [125I]Tyr-o-CRF from CRF1 receptor in IMR32 cells
Format: cell-based, IMR-32

SMILES | Ki [µM]
CCc1nc(NC(CC)CC)c(CC)nc1Nc1ccc(Cl)cc1Cl | > 10
CCO[C@H]1Cc2ccccc2[C@H]1Nc1nc(CC)c(Oc2ncccc2C)nc1CC | 0.509
CCc1nc(NC(CC)c2ccccc2)c(CC)nc1Nc1ncc(Cl)cc1Cl (centres undefined) | > 10
CCc1nc(N[C@@H]2c3ccccc3C[C@@H]2OCCF)c(CC)nc1Nc1ncc(Cl)cc1Cl | 1.73
CCc1nc(Oc2cc(C)ccn2)c(CC)nc1NC(CC)CC | > 10
CCO[C@H]1Cc2ccccc2[C@H]1Nc1nc(CC)c(Oc2cc(C)ccn2)nc1CC | 0.035
CCc1nc(NC(CC)CC)c(CC)nc1Nc1ccc([N+](=O)[O-])cn1 | > 10
CCO[C@@H]1Cc2ccccc2[C@@H]1Nc1nc(CC)c(Oc2cc(C)ccn2)nc1CC | > 10
CCO[C@H]1Cc2ccccc2[C@H]1Nc1nc(CC)c(Oc2cccc(C)n2)nc1CC | 0.472

The next lines start with the values.

Ki [µM] | SMILES
> 10 | CCc1nc(Oc2cc(C)ccn2)c(CC)nc1N[C@H]1c2ccccc2C[C@H]1O
2.02 | CCc1nc(Oc2cc(C)ccn2)c(CC)nc1N[C@@H]1c2ccccc2C[C@@H]1OC(C)=O
0.711 | CCCN(CCC)c1nc(CC)c(Oc2cc(C)ccn2)nc1CC
5.47 | CCO[C@H]1Cc2ccccc2[C@@H]1Nc1nc(CC)c(Oc2cc(C)ccn2)nc1CC
0.384 | CCOCC(Nc1nc(CC)c(Oc2cc(C)ccn2)nc1CC)c1ccccc1 (centres undefined)
0.03 | CCCO[C@H]1Cc2ccccc2[C@H]1Nc1nc(CC)c(Oc2cc(C)ccn2)nc1CC
> 10 | CCO[C@@H]1Cc2ccccc2[C@H]1Nc1nc(CC)c(Oc2cc(C)ccn2)nc1CC
0.115 | CCc1nc(NC(CC)CC)c(CC)nc1Nc1ncc(Cl)cc1Cl
> 10 | CCc1nc(NC(CC)CC)c(CC)nc1Nc1ccccn1
3.38 | CCc1nc(NC(CC)CC)c(CC)nc1Nc1cccc(C)n1
